In patent US20080021002A1, “VITAMIN D COMPOUNDS USED TO STABILIZE KIDNEY TRANSPLANTS” (priority 2000, published 2008):

What was measured:
Smad 2 mRNA = assay: Semi-quantitative RT-PCR of renal grafts, Smad 2 mRNA; format: in vivo, rat; conditions: vs controls
Protocol: (§1) Semi-quantitative Reverse transcription polymerace chain reaction (RT-PCR): Following graft harvest a […] containing both cortex and medulla was snap frozen in liquid nitrogen. Semi-quantitative RT-PCR was performed as described. Little et al. Transplant Int. 12:393-401, 1999. Briefly, samples were homogenized then total RNA extracted with RNAzol B (Tel Test, Inc., Friendswood, Tex.) and reversed transcribed to cDNA according to manufacturer=s instructions (Superscript, Gibco BRL). PCR was performed over the linear range of amplification for both the gene of interest, e.g. TGFβ-1, and the ribosomal protein S26 as a control housekeeping gene. PCR conditions were chosen such that both products were amplified with similar efficiency. The following cycle parameters were employed: denaturing, 94° C. for 60 seconds; annealing, 61° C. for 60 seconds; and extension, 72° C. for 60 seconds. The amount of product was quantified using a phosphoimager (Storm 80) following gel electrophoresis and Vista green detection.

Vitamin D receptor mRNA = assay: Semi-quantitative RT-PCR of renal grafts, vitamin D receptor mRNA; format: in vivo, rat
Protocol: as §1, with “12:393-401, 1999.” left out

Smad 3 protein = assay: Western blot of renal graft lysates, Smad 3 protein; format: in vivo, rat; conditions: allogeneic recipients regardless of treatment, vs syngeneic controls (data not shown)
Excerpt: (§2) Renal lysates were subjected to SDS-PAGE and transferred to nitrocellulose membranes. The membranes were probed with specific anti-Smad antibodies and appropriated HRP-conjugated secondary antibodies. Signal was detected with chemilumensnce. Following exposure, x-ray films were scanned and the amount of expression compared to that of tubulin as an internal control using Scion Image software. FIG. 4 (A) describes R-Smad expression. FIG. 4 (B) described I-Smad expression.
(§3) Western Blot Analysis: A portion of the snap frozen graft containing both cortex and medulla was ground with a mortar and pestle. For each 100 mg of tissue, the sample was resuspened in 400 ul of lysis buffer (10 mM Tris base, 150 mM NaCl, pH 8.0) containing protease inhibitors (P2714 1:1000. Sigma Chemical Co., St. Louis, Mo.) and homogenized (PowerGen 125, 1 minute). Triton X100 was then added to 1% and the sample place on ice, for 30 minutes. The solubilized sample was then spun at 4° C. for 15 minutes at 15,000×G. The supernatant was collected and stored at −80° C. Sample protein concentrations were determined using the Micro BCA assay (Pierce Chemical Co., Rockford, Ill.) according to manufacturer=s instructions, except that the assay was performed in half area plates combining 35 μl sample with 70 µl of reagent. […]

Smad 2 protein = assay: Western blot of renal graft lysates, Smad 2 protein; format: in vivo, rat; conditions: vs allogeneic untreated controls
Excerpt: as §2, §3

TGFβ-1 mRNA = assay: Semi-quantitative RT-PCR of renal grafts, TGFβ-1 mRNA; format: in vivo, rat; conditions: treated recipients vs untreated allogeneic control grafts
Protocol: as §1

Smad 6 mRNA = assay: Semi-quantitative RT-PCR of renal grafts, Smad 6 mRNA; format: in vivo, rat
Excerpt: FIG. 3 is a bar graph disclosing that 1,25-(OH)2D3 treated increases Smad 6 mRNA expression. Semi-quantitative RT-PCR was used to determine Smad mRNA express. PCR products were quantified on a phosphoimager and the level of Smad expression compared to that of a ribosomal housekeeping gene, S26. Results are expressed as the ratio to S26.
as §1

Smad 6 protein = assay: Western blot of renal graft lysates, Smad 6 protein; format: in vivo, rat; conditions: allograft recipients vs allogeneic untreated control group
Excerpt: as §2, §3

Smad 7 mRNA = assay: Semi-quantitative RT-PCR of renal grafts, Smad 7 mRNA; format: in vivo, rat; conditions: vs controls
Protocol: as §1

[1] = tested on: kidney or kidney-pancreas transplant recipients; conditions: human, in vivo
Excerpt: Methodology-retrospective analysis: The University of Wisconsin transplant database was screened to identify any kidney and/or kidney-pancreas transplant recipient who received 1,25-dihydroxyvitamin D3 (calcitriol)peri-post-transplant. Clinical and demographic variables were abstracted from the database. Those patients with adequate follow-up data were included in the analysis (≧1year follow-up data following the initiation of calcitriol). Demographic variables included race, age, and nay history of parathyroidectomy as these patients would likely be receiving calcitriol at time of transplantation. The effect of calcitriol treatment on renal function was analyzed using general linear mixed modeling of the change in slope of renal function prior to and following the start of calcitriol therapy. […] Adverse events and hypercalcemia were noted by identifiers in the database and by serum calcium levels as recorded in the database. Hypercalcemia was defined as a serum calcium >10.5 mg/dl.
The mean serum calcium in Group 1 and Group 2 patients was <10 mg/dl (9.6±0.9 mg/dl). There were no episodes of sustained hypercalcemia (>2 serial hypercalcemia values noted) or hypercalcemia events requiring hospitalization. There were no episodes of substained hematuria that could be directly attributable to hypercalcemia.

C=C1/C(=C\C=C2/CCC[C@]3(C)[C@@H]([C@H](C)CCCC(C)(C)O)CC[C@@H]23)C[C@@H](O)C[C@@H]1O [calcitriol, 1,25-dihydroxyvitamin D3]
Smad 2 mRNA levels (Smad 2 mRNA): no significant change | Vitamin D receptor mRNA expression (Vitamin D receptor mRNA; all treated groups vs untreated syngeneic control (data not shown)): elevated | Vitamin D receptor mRNA expression (Vitamin D receptor mRNA; vs untreated allogeneic control (data not shown)): not significantly different | Smad 3 protein levels (Smad 3 protein): similar | Decrease in Smad 2 protein levels (Smad 2 protein; 500 ng/rat/day (data not shown)): 208 fold | Decrease in Smad 2 protein levels (Smad 2 protein; 1000 ng/rat/day, p=0.04): 516 fold | TGFβ-1 mRNA levels (TGFβ-1 mRNA): no significant difference | Smad 6 mRNA expression (Smad 6 mRNA; allogeneic grafts, vs untreated allogeneic grafts (1,25-(OH)2D3 p=0.02)): significantly increased | Smad 6 mRNA expression (Smad 6 mRNA; syngeneic grafts, vs untreated allogeneic grafts, p=0.001): significantly increased | Smad 6 protein expression (Smad 6 protein): decreased | Smad 7 mRNA levels (Smad 7 mRNA): no significant change | Episodes of sustained hematuria attributable to hypercalcemia [1]: no episodes
